# Test results published in EP2604596A1, “Polymorphs of imatinib” (priority 2011, dated 2013).
# Assay: Non-hygroscopicity test (storage in stability chambers, water content)
# Assay type: physicochemical
# Conditions: mesylate; for Water Content after 3 months (%): 40°C at humidity of 75%, for 3 months; for Initial Water Content (%): before storage
# Protocol: In the present invention, samples of obtained crystalline forms are stored […] in stability chambers under following conditions of 40°C and humidity of 75%, for 3 months to support non-hygroscopic nature of novel forms of imatinib mesylate.
# Non-hygroscopicity test results are listed below in table 1.
SMILES,Water Content after 3 months (%),Initial Water Content (%)
"CS(=O)(=O)O.Cc1ccc(NC(=O)c2ccc(CN3CCN(C)CC3)cc2)cc1Nc1nccc(-c2cccnc2)n1 [Polymorph Y sample, 4-[(4-Methyl-1-piperazinyl)methyl]-N-[4-methyl-3-[[4-(3-pyridinyl)-2-pyrimidinyl]amino]phenyl]-benzamide mesylate]",0.50,0.40
"CS(=O)(=O)O.Cc1ccc(NC(=O)c2ccc(CN3CCN(C)CC3)cc2)cc1Nc1nccc(-c2cccnc2)n1 [Polymorph P sample, 4-[(4-Methyl-1-piperazinyl)methyl]-N-[4-methyl-3-[[4-(3-pyridinyl)-2-pyrimidinyl]amino]phenyl]-benzamide mesylate]",0.50,0.42
"CS(=O)(=O)O.Cc1ccc(NC(=O)c2ccc(CN3CCN(C)CC3)cc2)cc1Nc1nccc(-c2cccnc2)n1 [Polymorph β reference sample, 4-[(4-Methyl-1-piperazinyl)methyl]-N-[4-methyl-3-[[4-(3-pyridinyl)-2-pyrimidinyl]amino]phenyl]-benzamide mesylate, reference compound]",0.60,0.34
"CS(=O)(=O)O.Cc1ccc(NC(=O)c2ccc(CN3CCN(C)CC3)cc2)cc1Nc1nccc(-c2cccnc2)n1 [Polymorph B sample, 4-[(4-Methyl-1-piperazinyl)methyl]-N-[4-methyl-3-[[4-(3-pyridinyl)-2-pyrimidinyl]amino]phenyl]-benzamide mesylate]",0.48,0.37
"CS(=O)(=O)O.Cc1ccc(NC(=O)c2ccc(CN3CCN(C)CC3)cc2)cc1Nc1nccc(-c2cccnc2)n1 [Polymorph M sample, 4-[(4-Methyl-1-piperazinyl)methyl]-N-[4-methyl-3-[[4-(3-pyridinyl)-2-pyrimidinyl]amino]phenyl]-benzamide mesylate]",0.48,0.38
